According to paper PMC9653995, “New Positive TRPC6 Modulator Penetrates Blood–Brain Barrier, Eliminates Synaptic Deficiency and Restores Memory Deficit in 5xFAD Mice” (International Journal of Molecular Sciences, 2022):

Test system: Aβ42-treated hippocampal neurons
Assay: In vitro amyloid synaptotoxicity model: mushroom spine percentage in primary hippocampal neuronal cultures
Assay type: cell-based, mouse
Conditions: 24 h, mean ± SEM
Protocol: The average percentages of mushroom spines (MS%) in each experimental condition are presented as mean ± SEM (n = 20–30 neurons for each group from three batches of cultures). We observed that 24-h incubation in the presence of 1 µM and 100 nM of C20 rescues mushroom spine loss in Aβ42-treated hippocampal neurons. C20 lost its activity at a 10 nM concentration (Figure 2B, mushroom spine percentage (MS%) in the Control, 29.07 ± 1.15%; Control + C20 [1 µM], 31.32 ± 1.46%; Control + C20 [100 nM], 30.11 ± 0.86%; Control + C20 [10 nM]; […]; Aβ42, 19.82 ± 1.13%; Aβ42 + C20 [1 µM], 29.00 ± 1.94%; Aβ42 + C20 [100 nM], 27.28 ± 1.81%; Aβ42 + C20 [10 nM], 18.64 ± 1.63%; two-way ANOVA following Tukey’s multiple comparisons test, P values are indicated in the Figure).
Primary hippocampal neuronal cultures were prepared as previously described. Briefly, hippocampuses from postnatal day 0–2 FVB/NJ mice were removed and cut into small pieces in ice-cold buffer (1% 10x CMF-HBSS (Gibco, Grand Island, NY, USA; #14185), 1% Pen Strep (Gibco, #15140), 16 MM HEPES (Sigma, St Louis, MO, USA; #H3375), 10 MM NaHCO3 (Sigma, #S5761); pH = 7.2). Cell tissue was dissociated by trituration with 5 mg/mL DNase I solution (Sigma, #DN-25) after papain (Worthington, Columbus, OH, USA; #LK003176) digestion for 30 min at 37 °C. Hippocampal neurons were plated onto poly-D-lysine (Sigma, #P0899) coated 12 mm glass coverslips (Thermo Scientific, Braunschweig, Germany; #CB00120RA1) in 24-well dishes. in Neurobasal/B-27 with the addition of insulin-transferrin-sodium selenite (Sigma-Aldrich). Cells were grown in 1 mL of Neurobasal medium (Gibco, #10888) supplemented with 1% FBS (Gibco, #10500), 2% 50xB27 (Gibco, #17504), 0.05 MM L- Glutamine (Gibco, #250030). The cultures were maintained at 37 °C in a 5% CO2 incubator. Half of the medium was replaced with a new culture medium at DIV 7 and DIV 14. At DIV 14, neurons were fixed for 10 min with 4% paraformaldehyde sucrose in PBS at room temperature.
Neurons were transfected using the calcium phosphate method at DIV 7 as previously described with alterations that were described earlier. The transfection kit was obtained from Clontech (TAKARA Biotechnology, Mountain View, CA, USA; #631312).
Aβ42 peptides were purchased from AnaSpec (Anaspec, Freemont, CA, USA; #AS-20276). Stock solution [1 mg/mL] was prepared as described earlier and stored at −20 °C. Working Aβ42 solution was made immediately prior to treatment of the cells by diluting the stock concentration to 6.6 µM final Aβ peptide concentrations in Neurobasal. The working solution was incubated at +4 °C for 24 h to obtain the oligomeric conditions as described. […]

COc1cc2c(cc1OC)C(c1cc3ccccc3oc1=O)=NC(C)(C)C2 [C20, 3-(3-,4-Dihydro-6,7-dimethoxy-3,3-dimethyl-1-isoquinolinyl)-2H-1-benzopyran-2-one]
mushroom spine percentage (MS%) (Aβ42-treated cultures + 10 nM, Aβ42 alone 19.82 ± 1.13%): 18.64 ± 1.63%
mushroom spine percentage (MS%) (Aβ42-treated cultures + 100 nM, Aβ42 alone 19.82 ± 1.13%): 27.28 ± 1.81%
mushroom spine percentage (MS%) (Aβ42-treated cultures + 1 µM, Aβ42 alone 19.82 ± 1.13%): 29.00 ± 1.94%
mushroom spine percentage (MS%) (Control cultures + 100 nM, Control 29.07 ± 1.15%): 30.11 ± 0.86%
